{
  "source": "patent US20250352520A1",
  "about": "“USE OF DEXPRAMIPEXOLE FOR THE TREATMENT OF EOSINOPHILIC COPD” (Areteia Therapeutics, Inc., priority 2024, published 2025)",
  "conditions": "Week 8; <50% AEC reduction at Week 16",
  "data": [
    {"smiles": "CCCN[C@@H]1CCc2nc(N)sc2C1", "note": "[Dexpramipexole, (6R)-2-amino-4,5,6,7-tetrahydro-6-(propylamino)benzothiazole]", "values": [
      {"measurement": "Pre-BD FEF25-75 % change from baseline, Max", "value": 58, "unit": "%"},
      {"measurement": "Pre-BD FEF25-75 % change from baseline, Mean ± SD", "value": "30.4 ± 31.72", "unit": "%"},
      {"measurement": "Pre-BD FEF25-75 % change from baseline, Median", "value": 38.4, "unit": "%"},
      {"measurement": "Pre-BD FEF25-75 % change from baseline, Min", "value": "−14", "unit": "%"},
      {"measurement": "Pre-BD FEF25-75 % change from baseline, Q1", "value": 8, "unit": "%"},
      {"measurement": "Pre-BD FEF25-75 % change from baseline, Q3", "value": 53, "unit": "%"},
      {"measurement": "Pre-BD FEF25-75 Observed, Max", "value": 2050, "unit": "mL/s"},
      {"measurement": "Pre-BD FEF25-75 Observed, Mean ± SD", "value": "875.0 ± 790.55", "unit": "mL/s"},
      {"measurement": "Pre-BD FEF25-75 Observed, Median", "value": 535.0, "unit": "mL/s"},
      {"measurement": "Pre-BD FEF25-75 Observed, Min", "value": 380, "unit": "mL/s"},
      {"measurement": "Pre-BD FEF25-75 Observed, Q1", "value": 410, "unit": "mL/s"},
      {"measurement": "Pre-BD FEF25-75 Observed, Q3", "value": 1340, "unit": "mL/s"},
      {"measurement": "Pre-BD FEF25-75 change from baseline, Max", "value": 660, "unit": "mL/s"},
      {"measurement": "Pre-BD FEF25-75 change from baseline, Mean ± SD", "value": "200.0 ± 324.14", "unit": "mL/s"},
      {"measurement": "Pre-BD FEF25-75 change from baseline, Median", "value": 120.0, "unit": "mL/s"},
      {"measurement": "Pre-BD FEF25-75 change from baseline, Min", "value": -100, "unit": "mL/s"},
      {"measurement": "Pre-BD FEF25-75 change from baseline, Q1", "value": 0, "unit": "mL/s"},
      {"measurement": "Pre-BD FEF25-75 change from baseline, Q3", "value": 400, "unit": "mL/s"},
      {"measurement": "Pre-BD FEV1 % change from baseline, Max", "value": 41, "unit": "%"},
      {"measurement": "Pre-BD FEV1 % change from baseline, Mean ± SD", "value": "16.0 ± 19.59", "unit": "%"},
      {"measurement": "Pre-BD FEV1 % change from baseline, Median", "value": 13.2, "unit": "%"},
      {"measurement": "Pre-BD FEV1 % change from baseline, Min", "value": "−4", "unit": "%"},
      {"measurement": "Pre-BD FEV1 % change from baseline, Q1", "value": 1, "unit": "%"},
      {"measurement": "Pre-BD FEV1 % change from baseline, Q3", "value": 31, "unit": "%"},
      {"measurement": "Pre-BD FEV1 Observed, Max", "value": 2940, "unit": "mL"},
      {"measurement": "Pre-BD FEV1 Observed, Mean ± SD", "value": "1755.0 ± 860.79", "unit": "mL"},
      {"measurement": "Pre-BD FEV1 Observed, Median", "value": 1600.0, "unit": "mL"},
      {"measurement": "Pre-BD FEV1 Observed, Min", "value": 880, "unit": "mL"},
      {"measurement": "Pre-BD FEV1 Observed, Q1", "value": 1215, "unit": "mL"},
      {"measurement": "Pre-BD FEV1 Observed, Q3", "value": 2295, "unit": "mL"},
      {"measurement": "Pre-BD FEV1 change from baseline, Max", "value": 860, "unit": "mL"},
      {"measurement": "Pre-BD FEV1 change from baseline, Mean ± SD", "value": "282.5 ± 410.23", "unit": "mL"},
      {"measurement": "Pre-BD FEV1 change from baseline, Median", "value": 165.0, "unit": "mL"},
      {"measurement": "Pre-BD FEV1 change from baseline, Min", "value": -60, "unit": "mL"},
      {"measurement": "Pre-BD FEV1 change from baseline, Q1", "value": -5, "unit": "mL"},
      {"measurement": "Pre-BD FEV1 change from baseline, Q3", "value": 570, "unit": "mL"},
      {"measurement": "Pre-BD FVC % change from baseline, Max", "value": 17, "unit": "%"},
      {"measurement": "Pre-BD FVC % change from baseline, Mean ± SD", "value": "4.5 ± 11.70", "unit": "%"},
      {"measurement": "Pre-BD FVC % change from baseline, Median", "value": 5.1, "unit": "%"},
      {"measurement": "Pre-BD FVC % change from baseline, Min", "value": "−9", "unit": "%"},
      {"measurement": "Pre-BD FVC % change from baseline, Q1", "value": "−5", "unit": "%"},
      {"measurement": "Pre-BD FVC % change from baseline, Q3", "value": 14, "unit": "%"},
      {"measurement": "Pre-BD FVC Observed, Max", "value": 3990, "unit": "mL"},
      {"measurement": "Pre-BD FVC Observed, Mean ± SD", "value": "3162.5 ± 792.10", "unit": "mL"},
      {"measurement": "Pre-BD FVC Observed, Median", "value": 3175.0, "unit": "mL"},
      {"measurement": "Pre-BD FVC Observed, Min", "value": 2310, "unit": "mL"},
      {"measurement": "Pre-BD FVC Observed, Q1", "value": 2500, "unit": "mL"},
      {"measurement": "Pre-BD FVC Observed, Q3", "value": 3825, "unit": "mL"},
      {"measurement": "Pre-BD FVC change from baseline, Max", "value": 540, "unit": "mL"},
      {"measurement": "Pre-BD FVC change from baseline, Mean ± SD", "value": "167.5 ± 353.02", "unit": "mL"},
      {"measurement": "Pre-BD FVC change from baseline, Median", "value": 185.0, "unit": "mL"},
      {"measurement": "Pre-BD FVC change from baseline, Min", "value": -240, "unit": "mL"},
      {"measurement": "Pre-BD FVC change from baseline, Q1", "value": -120, "unit": "mL"},
      {"measurement": "Pre-BD FVC change from baseline, Q3", "value": 455, "unit": "mL"},
      {"measurement": "Pre-BD Peak Flow % change from baseline, Max", "value": 500, "unit": "%"},
      {"measurement": "Pre-BD Peak Flow % change from baseline, Mean ± SD", "value": "136.0 ± 243.51", "unit": "%"},
      {"measurement": "Pre-BD Peak Flow % change from baseline, Median", "value": 28.5, "unit": "%"},
      {"measurement": "Pre-BD Peak Flow % change from baseline, Min", "value": "−13", "unit": "%"},
      {"measurement": "Pre-BD Peak Flow % change from baseline, Q1", "value": 4, "unit": "%"},
      {"measurement": "Pre-BD Peak Flow % change from baseline, Q3", "value": 268, "unit": "%"},
      {"measurement": "Pre-BD Peak Flow Observed, Max", "value": 319, "unit": "L/min"},
      {"measurement": "Pre-BD Peak Flow Observed, Mean ± SD", "value": "227.0 ± 70.68", "unit": "L/min"},
      {"measurement": "Pre-BD Peak Flow Observed, Median", "value": 217.5, "unit": "L/min"},
      {"measurement": "Pre-BD Peak Flow Observed, Min", "value": 154, "unit": "L/min"},
      {"measurement": "Pre-BD Peak Flow Observed, Q1", "value": 175, "unit": "L/min"},
      {"measurement": "Pre-BD Peak Flow Observed, Q3", "value": 280, "unit": "L/min"},
      {"measurement": "Pre-BD Peak Flow change from baseline, Max", "value": 200, "unit": "L/min"},
      {"measurement": "Pre-BD Peak Flow change from baseline, Mean ± SD", "value": "70.5 ± 97.89", "unit": "L/min"},
      {"measurement": "Pre-BD Peak Flow change from baseline, Median", "value": 55.5, "unit": "L/min"},
      {"measurement": "Pre-BD Peak Flow change from baseline, Min", "value": -29, "unit": "L/min"},
      {"measurement": "Pre-BD Peak Flow change from baseline, Q1", "value": -1, "unit": "L/min"},
      {"measurement": "Pre-BD Peak Flow change from baseline, Q3", "value": 142, "unit": "L/min"}
    ]}
  ]
}
